One experiment addresses T1, human recombinant PDE9 enzyme (Homo sapiens, UniProt O76083).
T1 construct: made in house; host or cells: SF-9 insect cells
In words: Phosphodiesterase 9 (PDE9) inhibitory activity, Scintillation Proximity (SPA) assay. Format: biochemical.
Settings: not given
As to the method: Phosphodiesterase 9 (PDE9) Inhibitory Activity The PDE9 assay was performed using the Phosphodiesterase Scintillation Proximity (SPA) assay (GE Healthcare Life Sciences). […] The human recombinant PDE9 enzyme was generated in SF-9 cells, the cell pellets were sonicated in buffer (20 mM TRIS, 2 mM benzamidine, 1 mM EDTA, 250 mM sucrose, 100 μM PMSF, pH 7.5 with HCl), centrifuged at 40,000×g for 20 min at 4° C. The supernatants were stored at −80° C. […] Test compounds were dissolved in DMSO, diluted in DI H2O and serially diluted in 20% DMSO/80% H2O, for a final concentration of 2% DMSO. For the assay the PDE9 was diluted with assay buffer such that 20% or less of the substrate was hydrolyzed to 5′GMP. Each assay well contained 10 μl of test compound or solvent, 40 μl of [^3H]CGMP and 50 μl of enzyme, background was determined by a high concentration of a PDE inhibitor. The assay was initiated with the addition of the enzyme and carried out at room temperature for 30 min. […] The plates were sealed, vortexed, allowed to set for >300 min, then counted in a Wallac TriLux MicroBeta LSC.
(Scintillation proximity formats need no separation of bound from free tracer.)
T1 sequence (O76083 whole entry): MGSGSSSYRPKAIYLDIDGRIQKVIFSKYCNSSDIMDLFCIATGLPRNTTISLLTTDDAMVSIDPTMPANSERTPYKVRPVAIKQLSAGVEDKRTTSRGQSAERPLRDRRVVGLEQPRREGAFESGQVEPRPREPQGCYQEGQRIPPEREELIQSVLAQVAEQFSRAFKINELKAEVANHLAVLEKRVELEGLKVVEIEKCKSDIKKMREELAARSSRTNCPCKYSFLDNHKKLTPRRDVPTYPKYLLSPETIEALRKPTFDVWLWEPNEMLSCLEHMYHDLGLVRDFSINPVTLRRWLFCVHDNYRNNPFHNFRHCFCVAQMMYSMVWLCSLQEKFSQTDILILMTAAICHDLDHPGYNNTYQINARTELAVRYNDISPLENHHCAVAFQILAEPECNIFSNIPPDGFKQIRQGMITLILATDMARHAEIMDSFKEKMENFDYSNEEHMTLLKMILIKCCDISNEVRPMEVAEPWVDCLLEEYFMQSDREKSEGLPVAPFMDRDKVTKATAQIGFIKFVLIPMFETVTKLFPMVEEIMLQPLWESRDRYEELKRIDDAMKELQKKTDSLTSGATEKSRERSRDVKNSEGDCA
Consider `COc1ccc(CN2C[C@@H](C)[C@H](c3nc4c(cnn4C4CCOCC4)c(=O)[nH]3)C2)cc1` [Example 101, 6-[(3S,4S)-1-(4-methoxybenzyl)-4-methylpyrrolidin-3-yl]-1-(tetrahydro-2H-pyran-4-yl)-1,5-dihydro-4H-pyrazolo[3,4-d]pyrimidin-4-one], for which the IC50 came out at 7.94 nM.

Still in this experiment, the particulars now being: human recombinant PDE9 from SF-9 cells; 50 nM [3H]cGMP; room temperature, 30 min; Examples 3-114; read-out: G5678A (U): IC50.
For `Cc1ncccc1CN1C[C@@H](C)[C@H](c2nc3c(cnn3C3CCCC3)c(=O)[nH]2)C1` (racemic) [Example 17, 1-cyclopentyl-6-{(3,4-trans)-4-methyl-1-[(2-methylpyridin-3-yl)methyl]pyrrolidin-3-yl}-1,5-dihydro-4H-pyrazolo[3,4-d]pyrimidin-4-one], the IC50 came to 16.2 nM.
On the same count and under the same terms, then `C[C@@H]1CN(Cc2ccccc2C(F)(F)F)C[C@H]1c1nc2c(cnn2C2CCOCC2)c(=O)[nH]1` [Example 99, 6-{(3S,4S)-4-methyl-1-[2-(trifluoromethyl)benzyl]pyrrolidin-3-yl}-1-(tetrahydro-2H-pyran-4-yl)-1,5-dihydro-4H-pyrazolo[3,4-d]pyrimidin-4-one], with 12.8 nM; and `COc1ccc(CN2C[C@@H](C)[C@H](c3nc4c(cnn4C(C)C)c(=O)[nH]3)C2)cn1` [Example 43, 1-isopropyl-6-{(3S,4S)-1-[(6-methoxypyridin-3-yl)methyl]-4-methylpyrrolidin-3-yl}1,5-dihydro-4H-pyrazolo[3,4-d]pyrimidin-4-one], with 36.4 nM.
For the molecule `CC[C@@H]1CN(Cc2ccc3nccnc3c2)C[C@H]1c1nc2c(cnn2C(C)C)c(=O)[nH]1` (racemic) [Example 46, 6-[(3,4-trans)-4-ethyl-1-(quinoxalin-6-ylmethyl)pyrrolidin-3-yl]-1-isopropyl-1,5-dihydro-4H-pyrazolo[3,4-d]pyrimidin-4-one], the IC50 is 8.53 nM.
The same measure, in the same setting: next, `C[C@@H]1CN(Cc2ccnc3ccccc23)C[C@H]1c1nc2c(cnn2C2CCOCC2)c(=O)[nH]1` [Example 86, 6-[(3S,4S)-4-methyl-1-(quinolin-4-ylmethyl)pyrrolidin-3-yl]-1-(tetrahydro-2H-pyran-4-yl)-1,5-dihydro-4H-pyrazolo[3,4-d]pyrimidin-4-one]: 1.44 nM; `COc1ccc2nccc(CN3C[C@@H](C)[C@H](c4nc5c(cnn5C(C)C)c(=O)[nH]4)C3)c2c1` (racemic) [Example 71, 1-isopropyl-6-{(y)-1-[(6-methoxyquinolin-4-yl)methyl]-4-methylpyrrolidin-3-yl}-1,5-dihydro-4H-pyrazolo[3,4-d]pyrimidin-4-one]: 16.1 nM; `Cc1ncc(CN2C[C@@H](C)[C@H](c3nc4c(cnn4C4CCC4)c(=O)[nH]3)C2)cn1` (racemic) [Example 83, 1-cyclobutyl-6-{(3,4-trans)-4-methyl-1-[(2-methylpyrimidin-5-yl)methyl]pyrrolidin-3-yl}-1,5-dihydro-4H-pyrazolo[3,4-d]pyrimidin-4-one]: 24.5 nM.
On the same count and under the same terms, next, `C[C@@H]1CN(Cc2cnn3c2CCCC3)C[C@H]1c1nc2c(cnn2C2CCCC2)c(=O)[nH]1` [Example 48, 1-cyclopentyl-6-[(3S,4S)-4-methyl-1-(4,5,6,7-tetrahydropyrazolo[1,5-a]pyridin-3-ylmethyl)pyrrolidin-3-yl]-1,5-dihydro-4H-pyrazolo[3,4-d]pyrimidin-4-one]: 40.7 nM.
Take `C[C@@H]1CN(Cc2cnc3ccccc3n2)C[C@H]1c1nc2c(cnn2C2CCCC2)c(=O)[nH]1` (racemic) [Example 12, 1-cyclopentyl-6-[(3,4-trans)-4-methyl-1-(quinoxalin-2-ylmethyl)pyrrolidin-3-yl]-1,5-dihydro-4H-pyrazolo[3,4-d]pyrimidin-4-one]: the half-inhibitory concentration (IC50) was 7.23 nM.

Staying with this experiment, now noted: human recombinant PDE9 from SF-9 cells; 50 nM [3H]cGMP; room temperature, 30 min; additional compounds Ex. 115-228; read-out: G5678A (U):IC50.
`COc1ccccc1CN1C[C@@H](C)[C@H](c2nc3c(cnn3C3CCCC3)c(=O)[nH]2)C1` (racemic) [Example 211, 1-cyclopentyl-6-[(3,4-trans)-1-(2-methoxybenzyl)-4-methylpyrrolidin-3-yl]-1,5-dihydro-4H-pyrazolo[3,4-d]pyrimidin-4-one]: the IC50 turned out to be 39.8 nM.
As to `Cc1cc(CN2CC(C)C(c3nc4c(cnn4C4CCCC4)c(=O)[nH]3)C2)n(C)n1` (stereo not drawn) [Example 133, 1-cyclopentyl-6-{(3,4-trans)-1-[(1,3-dimethyl-1H-pyrazol-5-yl)methyl]-4-methylpyrrolidin-3-yl}-1,5-dihydro-4H-pyrazolo[3,4-d]pyrimidin-4-one], the half-maximal inhibitory concentration (IC50) was determined as 33.7 nM.
On the same count and under the same terms, then `C[C@@H]1CN(Cc2c(F)cccc2F)C[C@H]1c1nc2c(cnn2C2CCCC2)c(=O)[nH]1` (racemic) [Example 210, 1-cyclopentyl-6-[(3,4-trans)-1-(2,6-diflurobenzyl)-4-methylpyrrolidin-3-yl]-1,5-dihydro-4H-pyrazolo[3,4-d]pyrimidin-4-one], with 16.2 nM.
Same read-out and setting: then `COc1ccc(CN2C[C@@H](C)[C@H](c3nc4c(cnn4C4CCCC4)c(=O)[nH]3)C2)cc1OC` (racemic) [Example 176, 1-cyclopentyl-6-[(3,4-trans)-1-(3,4-dimethoxybenzyl)-4-methylpyrrolidin-3-yl]-1,5-dihydro-4H-pyrazolo[3,4-d]pyrimidin-4-one], with 27.1 nM.
The same measure, in the same setting: then `C[C@@H]1CN(Cc2ccc(Cl)c(Cl)c2)C[C@H]1c1nc2c(cnn2C2CCCC2)c(=O)[nH]1` (racemic) [Example 220, 1-cyclopentyl-6-[(3,4-trans)-1-(3,4-dichlorobenzyl)-4-methylpyrrolidin-3-yl]-1,5-dihydro-4H-pyrazolo[3,4-d]pyrimidin-4-one], with 28 nM.
For the molecule `C[C@@H]1CN(Cc2ccccc2C#N)C[C@H]1c1nc2c(cnn2C2CCCC2)c(=O)[nH]1` (racemic) [Example 157, 2-{[(3,4-trans)-3-(1-cyclopentyl-4-oxo-4,5-dihydro-1H-pyrazolo[3,4-d]pyrimidin-6-yl)-4-methylpyrrolidin-1-yl]methyl}benzonitrile], the IC50 amounted to 56.4 nM.
On to `CCOc1cccc(CN2C[C@@H](C)[C@H](c3nc4c(cnn4C4CCCC4)c(=O)[nH]3)C2)c1` (racemic) [Example 153, 1-cyclopentyl-6-[(3,4-trans)-1-(3-ethoxybenzyl)-4-methylpyrrolidin-3-yl]-1,5-dihydro-4H-pyrazolo[3,4-d]pyrimidin-4-one], for which the IC50 worked out at 54.4 nM.
Same read-out and setting: next, `C[C@@H]1CN(Cc2ccc(OC(F)F)cc2)C[C@H]1c1nc2c(cnn2C2CCCC2)c(=O)[nH]1` (racemic) [Example 159, 1-cyclopentyl-6-{(3,4-trans)-1-[4-(difluoromethoxy)benzyl]-4-methylpyrrolidin-3-yl}-1,5-dihydro-4H-pyrazolo[3,4-d]pyrimidin-4-one]: 59.9 nM; `COc1ccc(C)cc1CN1C[C@@H](C)[C@H](c2nc3c(cnn3C3CCCC3)c(=O)[nH]2)C1` (racemic) [Example 217, 1-cyclopentyl-6-[(3,4-trans)-1-(2-methoxy-5-methylbenzyl)-4-methylpyrrolidin-3-yl]-1,5-dihydro-4H-pyrazolo[3,4-d]pyrimidin-4-one]: 25 nM; `C[C@@H]1CN(Cc2cccc3nsnc23)C[C@H]1c1nc2c(cnn2C2CCCC2)c(=O)[nH]1` (racemic) [Example 221, 6-[(3,4-trans)-1-(2,1,3-benzothiadiazol-4-ylmethyl)-4-methylpyrrolidin-3-yl]-1-cyclopentyl-1,5-dihydro-4H-pyrazolo[3,4-d]pyrimidin-4-one]: 12.7 nM.

The term IC50 denotes the concentration that gives 50% inhibition.

For the origin of these results see US7964607B2, “Pyrazolo[3,4-d]pyrimidine compounds” (Pfizer Inc., priority 2007, dated 2011).
